Results on 39 molecules are retold here after ChEMBL document CHEMBL1138031, “3D QSAR studies of N-4-arylacryloylpiperazin-1-yl-phenyl-oxazolidinones: a novel class of antibacterial agents” (2006).

The assay concerns Staphylococcus aureus. Description: Antibacterial activity against Staphylococcus aureus ATCC 25923. The format is functional. As to conditions: for MIC: Staphylococcus aureus, ATCC 25923.

Each structure is given as a SMILES string. In brackets after ≈: the same amount, converted by molar mass.

What is called MIC is the smallest concentration in the dilution series that meets the test's criterion for growth inhibition. Low values mean a more susceptible organism, high ones a less susceptible organism. As to `CC(=O)NC[C@H]1CN(c2ccc(N3CCN(C(=O)/C=C/c4ccc(O)c(O)c4)CC3)c(F)c2)C(=O)O1`, the “Log (1/C)” value is on record as 1.4936 and the MIC amounted to 16 µg/mL (≈ 32.1 µM).

Consider `CC(=O)NC[C@H]1CN(c2ccc(N3CCN(C(=O)/C=C/c4ccc(OC(=O)C(C)(C)C)cc4)CC3)c(F)c2)C(=O)O1`, for which the “Log (1/C)” value stood at 1.5492 and the MIC is above 16 µg/mL.

For the molecule `CC(=O)NC[C@H]1CN(c2ccc(N3CCN(C(=O)/C=C/c4ccc(F)c(F)c4)CC3)c(F)c2)C(=O)O1`, the “Log (1/C)” value came out at 1.4971 and the MIC is above 16 µg/mL.

Turning to `C/C(S)=N/C[C@H]1CN(c2ccc(N3CCN(C(=O)/C=C/c4ccccc4)CC3)c(F)c2)C(=O)O1`, the “Log (1/C)” value is 3.2857 and the MIC worked out at 0.25 µg/mL (≈ 0.518 µM).

Regarding `CC(=O)NC[C@H]1CN(c2ccc(N3CCN(C(=O)/C=C/c4ccc(OS(C)(=O)=O)cc4)CC3)c(F)c2)C(=O)O1`, the “Log (1/C)” value amounted to 1.8456 and 8 µg/mL (≈ 14.3 µM) was the least that counted as inhibitory (MIC).

As to `CC(=O)NC[C@H]1CN(c2ccc(N3CCN(C(=O)/C=C/c4ccncc4)CC3)c(F)c2)C(=O)O1`, the “Log (1/C)” value is given as 2.3688 and the minimum inhibitory concentration (MIC) was 2 µg/mL (≈ 4.28 µM).

Regarding `CC(=O)NC[C@H]1CN(c2ccc(N3CCN(C(=O)/C=C/c4ccc[nH]4)CC3)c(F)c2)C(=O)O1`, the “Log (1/C)” value came out at 2.3575 and inhibition of growth (MIC) required 2 µg/mL (≈ 4.39 µM).

`CC(=O)NC[C@H]1CN(c2ccc(N3CCN(C(=O)/C=C/c4ccsc4)CC3)c(F)c2)C(=O)O1`: the “Log (1/C)” value came out at 2.3735 and the MIC was found to be 2 µg/mL (≈ 4.23 µM).

For the molecule `CC(=O)NC[C@H]1CN(c2ccc(N3CCN(C(=O)/C=C/c4ccc([N+](=O)[O-])o4)CC3)c(F)c2)C(=O)O1`, the “Log (1/C)” value was 3.3024 and it took 0.25 µg/mL (≈ 0.499 µM) to inhibit growth (MIC).

Consider `CC(=O)NC[C@H]1CN(c2ccc(N3CCN(C(=O)/C=C/c4ccco4)CC3)c(F)c2)C(=O)O1`, for which the “Log (1/C)” value was determined as 2.3584 and the MIC is 2 µg/mL (≈ 4.38 µM).

Consider `CC(=O)NC[C@H]1CN(c2ccc(N3CCN(C(=O)/C=C/c4cccs4)CC3)c(F)c2)C(=O)O1`, for which the “Log (1/C)” value worked out at 2.6745 and the MIC came out at 1 µg/mL (≈ 2.12 µM).

For `CC(=O)NC[C@H]1CN(c2ccc(N3CCN(C/C=C/c4ccco4)CC3)c(F)c2)C(=O)O1`, the “Log (1/C)” value is given as 2.0439 and the MIC was determined as 4 µg/mL (≈ 9.04 µM).

Turning to `CC(=O)NC[C@H]1CN(c2ccc(N3CCN(C(=O)/C=C/c4ccc(C)o4)CC3)c(F)c2)C(=O)O1`, the “Log (1/C)” value came out at 2.0706 and the lowest concentration to inhibit growth (MIC) was 4 µg/mL (≈ 8.5 µM).

For `CC(=O)NC[C@H]1CN(c2ccc(N3CCN(C/C=C/c4ccc([N+](=O)[O-])o4)CC3)c(F)c2)C(=O)O1`, the “Log (1/C)” value was found to be 2.387 and the minimal inhibitory concentration (MIC) came out at 2 µg/mL (≈ 4.1 µM).

Consider `NC(=S)NC[C@H]1CN(c2ccc(N3CCN(C(=O)/C=C/c4ccco4)CC3)c(F)c2)C(=O)O1`, for which the “Log (1/C)” value worked out at 2.6754 and the MIC stood at 1 µg/mL (≈ 2.11 µM).

Consider `CC(=O)NC[C@H]1CN(c2ccc(N3CCN(C(=O)/C=C/c4ccc(COC(C)=O)o4)CC3)c(F)c2)C(=O)O1`, for which the “Log (1/C)” value was 1.82 and the lowest concentration to inhibit growth (MIC) was 8 µg/mL (≈ 15.1 µM).

As to `NC(=S)NC[C@H]1CN(c2ccc(N3CCN(C(=O)/C=C/c4cccs4)CC3)c(F)c2)C(=O)O1`, the “Log (1/C)” value was found to be 2.9909 and it took 0.5 µg/mL (≈ 1.02 µM) to inhibit growth (MIC).

With `CC(=O)NC[C@H]1CN(c2ccc(N3CCN(C(=O)/C=C/c4ccc(CO)o4)CC3)c(F)c2)C(=O)O1`, the “Log (1/C)” value is on record as 2.0851 and the MIC came out at 4 µg/mL (≈ 8.22 µM).

As to `NC(=S)NC[C@H]1CN(c2ccc(N3CCN(C(=O)/C=C/c4ccncc4)CC3)c(F)c2)C(=O)O1`, the “Log (1/C)” value was determined as 2.0833 and the MIC stood at 4 µg/mL (≈ 8.25 µM).

For the molecule `C/C(S)=N/C[C@H]1CN(c2ccc(N3CCN(C(=O)/C=C/c4cccs4)CC3)c(F)c2)C(=O)O1`, the “Log (1/C)” value came out at 3.2911 and the MIC was found to be 0.25 µg/mL (≈ 0.512 µM).

Consider `C/C(S)=N/C[C@H]1CN(c2ccc(N3CCN(C(=O)/C=C/c4ccc([N+](=O)[O-])o4)CC3)c(F)c2)C(=O)O1`, for which the “Log (1/C)” value is reported as 3.316 and the MIC is 0.25 µg/mL (≈ 0.483 µM).

With `CC(=O)NC[C@H]1CN(c2ccc(N3CCN(C(=O)/C=C/c4ccc([N+](=O)[O-])s4)CC3)c(F)c2)C(=O)O1`, the “Log (1/C)” value turned out to be 3.316 and the MIC is 0.25 µg/mL (≈ 0.483 µM).

For the molecule `CC(=O)NC[C@H]1CN(c2ccc(N3CCN(C(=O)/C=C/c4ccoc4)CC3)c(F)c2)C(=O)O1`, the “Log (1/C)” value was 2.3584 and the lowest concentration to inhibit growth (MIC) was 2 µg/mL (≈ 4.38 µM).

Regarding `CC(=O)NC[C@H]1CN(c2ccc(N3CCN(C(=O)/C=C/c4c[nH]c5ccccc45)CC3)c(F)c2)C(=O)O1`, the “Log (1/C)” value was 2.4028 and it took 2 µg/mL (≈ 3.96 µM) to inhibit growth (MIC).

Regarding `NC(=S)NC[C@H]1CN(c2ccc(N3CCN(C(=O)/C=C/c4ccc(O)cc4)CC3)c(F)c2)C(=O)O1`, the “Log (1/C)” value is 2.6986 and the MIC was 1 µg/mL (≈ 2 µM).

Take `CC(=O)NC[C@H]1CN(c2ccc(N3CCN(C(=O)/C=C/c4cccnc4)CC3)c(F)c2)C(=O)O1`: the “Log (1/C)” value worked out at 2.6698 and the lowest concentration to inhibit growth (MIC) was 1 µg/mL (≈ 2.14 µM).

As for `CC(C)(C)C(=O)Oc1ccc(/C=C/C(=O)N2CCN(c3ccc(N4C[C@H](CNC(N)=S)OC4=O)cc3F)CC2)cc1`, the “Log (1/C)” value came out at 1.5621 and the MIC is above 16 µg/mL.

For the molecule `CC(=O)NC[C@H]1CN(c2ccc(N3CCN(C(=O)/C=C/c4ccc(O)cc4)CC3)c(F)c2)C(=O)O1`, the “Log (1/C)” value amounted to 2.3825 and the MIC is 2 µg/mL (≈ 4.14 µM).

Regarding `CC(=O)NC[C@H]1CN(c2ccc(N3CCN(C(=O)/C=C/c4cccc(O)c4)CC3)c(F)c2)C(=O)O1`, the “Log (1/C)” value is 2.3825 and the lowest concentration to inhibit growth (MIC) was 2 µg/mL (≈ 4.14 µM).

As for `CC(=O)NC[C@H]1CN(c2ccc(N3CCN(C(=O)/C=C/c4ccccc4)CC3)c(F)c2)C(=O)O1`, the “Log (1/C)” value was determined as 2.0669 and the MIC worked out at 4 µg/mL (≈ 8.57 µM).

In the case of `CC(=O)NC[C@H]1CN(c2ccc(N3CCN(C(=O)/C=C/c4ccc(C(=O)O)o4)CC3)c(F)c2)C(=O)O1`, the “Log (1/C)” value turned out to be 1.4953 and the MIC is above 16 µg/mL.

Regarding `C/C(S)=N/C[C@H]1CN(c2ccc(N3CCN(C(=O)/C=C/c4ccncc4)CC3)c(F)c2)C(=O)O1`, the “Log (1/C)” value came out at 2.9855 and the MIC amounted to 0.5 µg/mL (≈ 1.03 µM).

Take `CC(=O)NC[C@H]1CN(c2ccc(N3CCN(C(=O)/C=C/c4ccc(C=O)o4)CC3)c(F)c2)C(=O)O1`: the “Log (1/C)” value is on record as 2.0833 and the lowest concentration to inhibit growth (MIC) was 4 µg/mL (≈ 8.26 µM).

Consider `C/C(S)=N/C[C@H]1CN(c2ccc(N3CCN(C(=O)/C=C/c4c[nH]c5ccccc45)CC3)c(F)c2)C(=O)O1`, for which the “Log (1/C)” value came to 3.0184 and 0.5 µg/mL (≈ 0.959 µM) was the least that counted as inhibitory (MIC).

In the case of `NC(=S)NC[C@H]1CN(c2ccc(N3CCN(C(=O)/C=C/c4c[nH]c5ccccc45)CC3)c(F)c2)C(=O)O1`, the “Log (1/C)” value is reported as 3.3318 and the lowest concentration to inhibit growth (MIC) was 0.25 µg/mL (≈ 0.478 µM).

In the case of `C/C(S)=N/C[C@H]1CN(c2ccc(N3CCN(C(=O)/C=C/c4ccco4)CC3)c(F)c2)C(=O)O1`, the “Log (1/C)” value is given as 2.9755 and the MIC worked out at 0.5 µg/mL (≈ 1.06 µM).

For the molecule `NC(=S)NC[C@H]1CN(c2ccc(N3CCN(C(=O)/C=C/c4ccccc4)CC3)c(F)c2)C(=O)O1`, the “Log (1/C)” value is on record as 2.6845 and inhibition of growth (MIC) required 1 µg/mL (≈ 2.07 µM).

Consider `C/C(S)=N/C[C@H]1CN(c2ccc(N3CCN(C(=O)/C=C/c4ccc(O)cc4)CC3)c(F)c2)C(=O)O1`, for which the “log(1/C)” value is listed as 2.3967 and it took 2 µg/mL (≈ 4.01 µM) to inhibit growth (MIC).

As for `CC(=O)NC[C@H]1CN(c2ccc(N3CCN(C(=O)CO)CC3)c(F)c2)C(=O)O1` [EPEREZOLID], the “Log (1/C)” value came out at 1.9939 and the MIC was found to be 4 µg/mL (≈ 10.1 µM).
